Data taken from ChEMBL document CHEMBL3621057, “Multicomponent Synthesis and Biological Evaluation of a Piperazine-Based Dopamine Receptor Ligand Library” (ACS Med Chem Lett, 2015).
Activity calls are given as the source filed them. The rule behind the calls is not given here.

Assays:
[1] = biological target: T1, D(2) dopamine receptor (Homo sapiens, UniProt P14416); assay: Displacement of [3H]spiperone from human dopamine D2L receptor expressed in CHO cells; assay type: cell-based
[2] = biological target: D(3) dopamine receptor (Homo sapiens, UniProt P35462); assay: Displacement of [3H]spiperone from human dopamine D3 receptor expressed in CHO cells; assay type: cell-based
[3] = biological target: T1, D(2) dopamine receptor; assay: Displacement of [3H]spiperone from human dopamine D2S receptor expressed in CHO cells; assay type: cell-based
[4] = biological target: D(1A) dopamine receptor (Homo sapiens, UniProt P21728); assay: Displacement of [3H]SCH23390 from human dopamine D1 receptor expressed in HEK cells; assay type: cell-based, HEK293
[5] = biological target: D(1B) dopamine receptor (Homo sapiens, UniProt P21918); assay: Displacement of [3H]SCH23390 from human dopamine D5 receptor expressed in HEK cells; assay type: cell-based, HEK293
[6] = biological target: T2, D(4) dopamine receptor (Homo sapiens, UniProt P21917); assay: Displacement of [3H]spiperone from human dopamine D4 receptor expressed in CHO cells; assay type: cell-based
T2 sequence (P21917 whole entry): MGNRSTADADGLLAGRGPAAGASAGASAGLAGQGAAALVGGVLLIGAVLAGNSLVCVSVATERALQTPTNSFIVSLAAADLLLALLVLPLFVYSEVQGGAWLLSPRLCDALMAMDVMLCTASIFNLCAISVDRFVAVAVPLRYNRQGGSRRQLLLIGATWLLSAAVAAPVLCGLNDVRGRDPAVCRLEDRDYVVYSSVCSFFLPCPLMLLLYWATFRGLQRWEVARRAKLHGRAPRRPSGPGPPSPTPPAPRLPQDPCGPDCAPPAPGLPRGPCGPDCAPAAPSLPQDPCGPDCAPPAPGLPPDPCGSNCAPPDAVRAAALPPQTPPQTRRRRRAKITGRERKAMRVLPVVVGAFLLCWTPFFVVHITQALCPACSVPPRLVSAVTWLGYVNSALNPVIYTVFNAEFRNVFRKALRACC

[7] = biological target: T1, D(2) dopamine receptor; assay: Antagonist activity at human D2S receptor transfected in HEK293T cells assessed as forskolin-induced cAMP accumulation by BRET assay; assay type: functional, cell-based; conditions: HEK-293T

Chain of D(3) dopamine receptor (P35462 whole entry): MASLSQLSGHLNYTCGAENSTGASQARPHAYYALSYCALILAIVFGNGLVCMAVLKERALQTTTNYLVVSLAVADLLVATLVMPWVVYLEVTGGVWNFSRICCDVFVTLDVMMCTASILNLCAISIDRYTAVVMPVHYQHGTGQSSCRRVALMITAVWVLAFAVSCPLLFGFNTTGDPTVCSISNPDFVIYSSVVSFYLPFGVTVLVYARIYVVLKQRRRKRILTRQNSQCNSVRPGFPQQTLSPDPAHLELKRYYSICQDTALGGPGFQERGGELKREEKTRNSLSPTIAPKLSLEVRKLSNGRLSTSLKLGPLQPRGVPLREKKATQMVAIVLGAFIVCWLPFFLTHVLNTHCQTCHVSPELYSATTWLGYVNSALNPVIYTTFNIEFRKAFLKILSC
T1 sequence (P14416 whole entry): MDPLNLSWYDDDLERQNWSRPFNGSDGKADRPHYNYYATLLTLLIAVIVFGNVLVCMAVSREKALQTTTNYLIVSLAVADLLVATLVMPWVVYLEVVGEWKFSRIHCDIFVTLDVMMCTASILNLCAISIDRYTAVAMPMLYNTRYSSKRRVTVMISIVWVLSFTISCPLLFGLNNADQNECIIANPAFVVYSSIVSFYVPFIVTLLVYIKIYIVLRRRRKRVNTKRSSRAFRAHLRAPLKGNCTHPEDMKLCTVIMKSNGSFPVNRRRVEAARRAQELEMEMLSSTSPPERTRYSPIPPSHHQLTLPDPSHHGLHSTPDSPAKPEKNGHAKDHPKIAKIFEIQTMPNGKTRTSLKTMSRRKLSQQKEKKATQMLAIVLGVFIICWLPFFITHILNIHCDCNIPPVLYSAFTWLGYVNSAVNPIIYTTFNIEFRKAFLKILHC
Chain of D(1A) dopamine receptor (P21728 whole entry): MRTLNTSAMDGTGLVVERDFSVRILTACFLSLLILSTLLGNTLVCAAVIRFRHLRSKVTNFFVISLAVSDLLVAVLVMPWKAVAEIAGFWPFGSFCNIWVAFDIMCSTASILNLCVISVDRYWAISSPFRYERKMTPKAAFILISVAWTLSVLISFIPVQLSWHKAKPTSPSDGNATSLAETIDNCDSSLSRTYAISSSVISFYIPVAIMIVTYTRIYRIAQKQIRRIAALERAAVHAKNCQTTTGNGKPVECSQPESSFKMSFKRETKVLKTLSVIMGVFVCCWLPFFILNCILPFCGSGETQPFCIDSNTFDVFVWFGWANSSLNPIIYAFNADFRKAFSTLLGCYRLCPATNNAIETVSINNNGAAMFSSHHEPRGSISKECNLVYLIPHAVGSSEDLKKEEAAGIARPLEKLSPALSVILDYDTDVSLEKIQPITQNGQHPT
Chain of D(1B) dopamine receptor (P21918 whole entry): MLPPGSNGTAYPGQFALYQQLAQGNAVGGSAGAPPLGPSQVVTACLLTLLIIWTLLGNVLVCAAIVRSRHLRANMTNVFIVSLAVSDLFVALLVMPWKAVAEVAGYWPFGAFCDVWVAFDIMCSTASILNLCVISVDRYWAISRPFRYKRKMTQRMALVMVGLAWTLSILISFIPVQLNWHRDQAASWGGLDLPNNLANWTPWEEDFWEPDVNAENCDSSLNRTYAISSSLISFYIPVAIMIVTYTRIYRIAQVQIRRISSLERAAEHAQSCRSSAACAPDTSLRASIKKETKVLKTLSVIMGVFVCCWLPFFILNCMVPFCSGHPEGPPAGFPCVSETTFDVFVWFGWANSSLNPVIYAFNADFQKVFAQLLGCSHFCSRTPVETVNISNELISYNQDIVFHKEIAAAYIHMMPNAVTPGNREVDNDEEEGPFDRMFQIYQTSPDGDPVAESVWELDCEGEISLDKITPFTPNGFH

SMILES | Ki [1] [nM] | Ki [2] [nM] | Ki [3] [nM] | Ki [4] [nM] | Ki [5] [nM] | Ki [6] [nM] | Activity [7]
CCCN(CCN1CCN(Cc2cc3ccccc3[nH]2)CC1)c1ccc(Br)cc1 | 220 | 600 |  |  |  |  | 
COc1ccc(NCCN2CCN(CCc3c[nH]c4ccccc34)CC2)cc1 | 430 | 620 |  |  |  |  | 
CCCN(CCN1CCN(CCc2c[nH]c3ccccc23)CC1)c1ccc(Br)cc1 | 58 | 89 | 51 | 250 | 1300 | 0.72 | Active
Brc1ccc(NCCN2CCN(Cc3cc4ccccc4[nH]3)CC2)cc1 | 920 | 2300 |  |  |  |  | 
CCCN(CCN1CCN(Cc2cc3ccccc3[nH]2)CC1)Cc1ccc(Br)cc1 | 920 | 930 |  |  |  |  | 
Brc1ccc(NCCN2CCN(CCc3c[nH]c4ccccc34)CC2)cc1 | 53 | 200 | 48 | 480 | 3600 | 20 | Active
CCCN(CCN1CCN(CCc2c[nH]c3ccccc23)CC1)c1ccc(OC)cc1 | 120 | 280 |  |  |  |  | 

Continued, in another order:

Ki [1] [nM] | Ki [2] [nM] | SMILES | Ki [3] [nM] | Ki [4] [nM] | Ki [5] [nM] | Ki [6] [nM] | Activity [7]
7500 | 18000 | COc1ccc(NCCN2CCN(Cc3cc4ccccc4[nH]3)CC2)cc1 |  |  |  |  | 
5200 | 1800 | Brc1ccc(CNCCN2CCN(Cc3cc4ccccc4[nH]3)CC2)cc1 |  |  |  |  | 
4000 | 4300 | COc1ccc(CNCCN2CCN(Cc3cc4ccccc4[nH]3)CC2)cc1 |  |  |  |  | 
4100 | 4600 | CCCN(CCN1CCN(Cc2cc3ccccc3[nH]2)CC1)Cc1ccc(OC)cc1 |  |  |  |  | 
520 | 1300 | CCCN(CCN1CCN(Cc2cc3ccccc3[nH]2)CC1)c1ccc(OC)cc1 |  |  |  |  | 
